# Assay results taken from PMC4749168, “Potentiation of ΔF508- and G551D-CFTR-Mediated Cl^- Current by Novel Hydroxypyrazolines” (PLoS ONE, 2016).
# Entries after “also recorded” stand apart in the source; their conditions may differ.
# Key:
# [1] = biological target: ΔF508-CFTR (Homo sapiens, UniProt P13569, DEL508-508); assay: Apical membrane current of VX-809-rescued ΔF508-CFTR in FRT cells; type: cell-based; design: expressed in transfected cells; host or cells: Fisher rat thyroid (FRT) cells, co-expressing halide sensor YFP-H148Q/I152L; provided by Dr. Alan Verkman; conditions: 48 h, combined with 5 μM VX-809, 10 μM CP7q or 5 μM VX-770
# Procedure: Snapwell inserts containing CFTR-expressing FRT and primary culture of human nasal epithelial cells were mounted in Ussing chambers (Physiologic Instruments, San Diego, CA). Forskolin, genistein, CP7q and CFTRinh-172 were added to the apical and basolateral bath solution. For FRT cells, the apical bath was filled with a half-Cl^- solution and the basolateral bath was filled with HCO3^—buffered solution, and the basolateral membrane was permeabilized with 250 μg/mL amphotericin B. For primary cultures of human nasal epithelial cells, symmetrical HCO3^—buffered solutions were used and ENaC was inhibited by pre-treatment with amiloride (100 μM). All cells were bathed for a 20 min stabilization period and aerated with 95% O2 / 5% CO2 at 37°C. Apical membrane current and short-circuit current were measured with an EVC4000 Multi-Channel V/I Clamp (World Precision Instruments, Sarasota, FL) and recorded using PowerLab 4/35 (AD Instruments, Castle Hill, Australia). Data were collected and analyzed with ADInstruments acquisition software Labchart Pro 7 software. The sampling rate was 4 Hz.
# [2] = tested on: HT-29 cells; assay: MTS cell viability assay; type: cell-based, human; conditions: 24 h, up to 10 μM
# Procedure: HT-29 human colon adenocarcinoma cells were plated at a density of 1 x10^4 per cm^2on 96-well microplates. After 24 h incubation, cells were treated with hydroxypyrazolines and then incubated for 1 day. An equal amount of DMSO was added to the all control. The culture medium and the compounds were changed every 12 h. For MTS assay, the cells were reincubated with MTS for 1 hour. The soluble formazan produced by cellular reduction of MTS was quantified by measuring the absorbance at 490 nm with Infinite M200 (Tecan, Grödig, Austria) microplate reader. MTS assay was done using CellTiter 96® AQueous One Solution Cell Proliferation Assay kit (Promega, Madison, WI, USA).
# [3] = tested on: intracellular cAMP; assay: Cyclic AMP assay in FRT cells; type: cell-based, rat; conditions: 10 μM CP7q
# Procedure: FRT cells grown on 12 well culture plates were washed 3 times with PBS at 37°C and then incubated in PBS at 37°C containing 100 μM IBMX for […] in the absence or presence of forskolin or CP7q. After 10 min incubation, the cells were washed with cold PBS and cytosolic cAMP was measured using a cAMP immunoassay kit (Parameter TM cAMP immunoassay kit, R&D Systems) according to the manufacturer's protocol.
# Sequence of ΔF508-CFTR (P13569 with tags, fused parts or gaps DEL508-508): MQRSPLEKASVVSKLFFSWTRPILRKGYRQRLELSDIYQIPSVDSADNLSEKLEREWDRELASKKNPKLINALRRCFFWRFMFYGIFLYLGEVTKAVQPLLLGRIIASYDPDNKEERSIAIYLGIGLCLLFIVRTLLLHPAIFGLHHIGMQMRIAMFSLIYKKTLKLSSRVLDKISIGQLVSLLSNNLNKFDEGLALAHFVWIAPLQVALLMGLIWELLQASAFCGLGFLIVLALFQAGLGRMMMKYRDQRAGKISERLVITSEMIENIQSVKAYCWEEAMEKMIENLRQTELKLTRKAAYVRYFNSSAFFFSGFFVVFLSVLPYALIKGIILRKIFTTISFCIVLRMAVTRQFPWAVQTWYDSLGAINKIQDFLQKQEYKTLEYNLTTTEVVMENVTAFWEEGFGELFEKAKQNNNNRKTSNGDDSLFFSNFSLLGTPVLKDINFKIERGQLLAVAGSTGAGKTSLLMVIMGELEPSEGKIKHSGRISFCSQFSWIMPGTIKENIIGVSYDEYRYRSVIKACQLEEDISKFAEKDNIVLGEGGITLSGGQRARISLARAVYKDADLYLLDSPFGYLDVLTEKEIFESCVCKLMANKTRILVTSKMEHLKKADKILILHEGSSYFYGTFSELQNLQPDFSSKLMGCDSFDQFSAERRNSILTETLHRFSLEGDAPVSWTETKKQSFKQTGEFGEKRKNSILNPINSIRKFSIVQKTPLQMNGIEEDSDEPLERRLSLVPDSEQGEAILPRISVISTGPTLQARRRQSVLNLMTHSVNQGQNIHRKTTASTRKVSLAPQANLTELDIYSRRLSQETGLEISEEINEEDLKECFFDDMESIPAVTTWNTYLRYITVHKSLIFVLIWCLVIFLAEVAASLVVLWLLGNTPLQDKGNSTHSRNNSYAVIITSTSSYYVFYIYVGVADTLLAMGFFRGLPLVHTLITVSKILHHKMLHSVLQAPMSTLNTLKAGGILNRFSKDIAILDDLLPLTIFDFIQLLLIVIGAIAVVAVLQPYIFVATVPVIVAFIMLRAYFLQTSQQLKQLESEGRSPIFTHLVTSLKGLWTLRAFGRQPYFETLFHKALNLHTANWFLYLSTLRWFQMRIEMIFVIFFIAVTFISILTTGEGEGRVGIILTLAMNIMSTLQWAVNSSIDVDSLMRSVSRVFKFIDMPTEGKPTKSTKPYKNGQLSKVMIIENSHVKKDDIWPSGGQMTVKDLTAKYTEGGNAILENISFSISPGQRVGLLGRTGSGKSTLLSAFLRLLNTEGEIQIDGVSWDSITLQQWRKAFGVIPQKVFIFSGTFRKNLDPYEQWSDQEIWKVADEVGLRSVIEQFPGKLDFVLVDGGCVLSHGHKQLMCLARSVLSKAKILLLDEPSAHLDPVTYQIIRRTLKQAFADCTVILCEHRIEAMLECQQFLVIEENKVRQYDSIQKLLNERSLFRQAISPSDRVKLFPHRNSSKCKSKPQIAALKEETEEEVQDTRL
smiles,measurement,setting,value
"COc1ccc(C2CC(c3ccc(O)cc3O)=NN2c2ccc(S(N)(=O)=O)cc2)c(OC)c1 (stereo not drawn) [Compound 7q, 4-[3-(2,4-dihydroxyphenyl)-5-(2,4-dimethoxyphenyl)-4,5-dihydro-1H-pyrazol-1-yl] benzenesulfonamide]",Effect on apical membrane current of VX-809-rescued ΔF508-CFTR,[1],strongly increased
same,"Cytotoxicity (cell viability, MTS)",[2],no cytotoxicity
same,Effect on intracellular cAMP level,[3],did not alter; also recorded: did not affect
